2 compounds from patent US6475531B1, “Safe botanical drug for treatment and prevention of influenza and increasing immune function” (priority 2001, dated 2002) can be followed below.

Converted amounts (≈) assume the structure as drawn.

Format in all cases: cell-based, influenza A viruses
The test system of one assay is A/England/939/69. The experiment in a line: Plaque inhibition assay in MDCK cells. Conditions: Influenza A virus.
Another assay has as its system A/Singapore/1/75 (H2N2). The experiment in a line: microbe, parasite or virus in culture. Conditions: Influenza A virus, H2N2, MDCK.
The next assay relates to A/Brazil/11/78 (H1N1). The experiment in a line: Plaque inhibition assay in MDCK cells. Conditions: Influenza A virus.
A further assay concerns A/Beijing/32/92 (H3N2). The experiment in a line: Plaque inhibition assay in MDCK cells. Conditions: Influenza A virus.

In the case of `NC(=O)c1ncn([C@@H]2O[C@H](CO)[C@@H](O)[C@H]2O)n1` [Ribavirin], the IC50 with A/England/939/69 was 46 µg/mL (≈ 188 µM); in the assay on A/Singapore/1/75 (H2N2) it was 82 µg/mL (≈ 336 µM); in the assay on A/Brazil/11/78 (H1N1) it was 56 µg/mL (≈ 229 µM); in the assay on A/Beijing/32/92 (H3N2) it was 90 µg/mL (≈ 369 µM).
For the compound `NC12CC3CC(CC(C3)C1)C2` [Amantadine], the IC50 with A/England/939/69 is 21 µg/mL (≈ 139 µM); with A/Singapore/1/75 (H2N2), 11 µg/mL (≈ 72.7 µM); in the assay on A/Brazil/11/78 (H1N1) it was 38 µg/mL (≈ 251 µM); in the assay on A/Beijing/32/92 (H3N2), 25 µg/mL (≈ 165 µM).

By IC50 is commonly meant the concentration at which inhibition is half-maximal.
